Experimental data published in the NIST ThermoML archive (doi:10.1016/j.jct.2007.09.009).
Values joined by “and” are separate entries in the source; they are usually repeats but may differ in a detail not shown here. Equal values may be shown once.

Assay: xn = mol fraction of the nth substance listed
Details: 313.15 K, 101 kPa, Liquid, Direct dilatometry

CC(=O)N(C)C [N,N-dimethylethanamide] + O
Details | excess molar volume
x1 = 0.0092 | -3.79e-08 m3/mol
x1 = 0.0196 | -8.59e-08 m3/mol
x1 = 0.03 | -1.402e-07 m3/mol
x1 = 0.0556 | -2.881e-07 m3/mol
x1 = 0.0704 | -3.778e-07 m3/mol
x1 = 0.0823 | -4.496e-07 m3/mol
x1 = 0.0853 | -4.67e-07 m3/mol
x1 = 0.091 | -4.98e-07 m3/mol
x1 = 0.0968 | -5.344e-07 m3/mol
x1 = 0.0981 | -5.428e-07 m3/mol
x1 = 0.1063 | -5.918e-07 m3/mol
x1 = 0.1088 | -6.146e-07 m3/mol
x1 = 0.1167 | -6.527e-07 m3/mol
x1 = 0.1258 | -7.063e-07 m3/mol
x1 = 0.1364 | -7.653e-07 m3/mol
x1 = 0.1478 | -8.283e-07 m3/mol
x1 = 0.1603 | -8.946e-07 m3/mol
x1 = 0.1651 | -9.21e-07 m3/mol
x1 = 0.1728 | -9.553e-07 m3/mol and -9.577e-07 m3/mol
x1 = 0.1851 | -1.017e-06 m3/mol
x1 = 0.1902 | -1.039e-06 m3/mol
x1 = 0.2039 | -1.098e-06 m3/mol
x1 = 0.2221 | -1.172e-06 m3/mol
x1 = 0.2379 | -1.229e-06 m3/mol
x1 = 0.2514 | -1.273e-06 m3/mol
x1 = 0.2642 | -1.315e-06 m3/mol
x1 = 0.2665 | -1.318e-06 m3/mol
x1 = 0.2718 | -1.334e-06 m3/mol
x1 = 0.2773 | -1.349e-06 m3/mol
x1 = 0.2787 | -1.35e-06 m3/mol
x1 = 0.2883 | -1.374e-06 m3/mol
x1 = 0.2987 | -1.397e-06 m3/mol
x1 = 0.31 | -1.418e-06 m3/mol
x1 = 0.3216 | -1.44e-06 m3/mol
x1 = 0.3377 | -1.463e-06 m3/mol
x1 = 0.352 | -1.479e-06 m3/mol
x1 = 0.3679 | -1.493e-06 m3/mol
x1 = 0.3759 | -1.501e-06 m3/mol
x1 = 0.3782 | -1.499e-06 m3/mol
x1 = 0.3812 | -1.502e-06 m3/mol
x1 = 0.3884 | -1.506e-06 m3/mol
x1 = 0.3918 | -1.505e-06 m3/mol
x1 = 0.3948 | -1.508e-06 m3/mol
x1 = 0.4047 | -1.511e-06 m3/mol
x1 = 0.4141 | -1.511e-06 m3/mol
x1 = 0.4248 | -1.511e-06 m3/mol
x1 = 0.4402 | -1.507e-06 m3/mol
x1 = 0.4583 | -1.497e-06 m3/mol
x1 = 0.47 | -1.489e-06 m3/mol
x1 = 0.4759 | -1.487e-06 m3/mol
x1 = 0.4881 | -1.473e-06 m3/mol
x1 = 0.4976 | -1.464e-06 m3/mol
x1 = 0.5257 | -1.43e-06 m3/mol
x1 = 0.5546 | -1.38e-06 m3/mol
x1 = 0.5961 | -1.295e-06 m3/mol
x1 = 0.6483 | -1.173e-06 m3/mol
x1 = 0.6819 | -1.082e-06 m3/mol
x1 = 0.7273 | -9.449e-07 m3/mol
x1 = 0.732 | -9.375e-07 m3/mol
x1 = 0.755 | -8.613e-07 m3/mol
x1 = 0.7743 | -8.015e-07 m3/mol
x1 = 0.7939 | -7.378e-07 m3/mol
x1 = 0.8089 | -6.896e-07 m3/mol
x1 = 0.8158 | -6.653e-07 m3/mol
x1 = 0.8331 | -6.07e-07 m3/mol
x1 = 0.8622 | -5.075e-07 m3/mol
x1 = 0.8823 | -4.342e-07 m3/mol
x1 = 0.884 | -4.256e-07 m3/mol
x1 = 0.9064 | -3.494e-07 m3/mol
x1 = 0.9258 | -2.754e-07 m3/mol
x1 = 0.9539 | -1.863e-07 m3/mol
x1 = 0.9568 | -1.596e-07 m3/mol
x1 = 0.9716 | -1.062e-07 m3/mol
